The subject of assay [1] is macrophage and neutrophil infiltration. In words: Acute cigarette smoke induced cell infiltration in male Balb/c mice. In kind it is in vivo. To be noted: acute CS; for ED50: oral. As to the method:
Animals were acclimatized for seven days prior to the start of the experiment. Animals were randomly distributed to various groups based on their body weights. On day 1, mice were administered by test compound or vehicle by the oral route and after 30 mins test compound administration animals were placed in a whole body exposure box. The mice were exposed to the mainstream smoke of 6 cigarettes from day 1 to day 4. Exposure to the smoke of each cigarette lasted for 10 min (cigarettes were completely burned in the first two minutes and followed by an air flow with animal ventilator) followed by exposure for the next 20 min with fresh room air. After every second cigarette an additional break of 20 min with exposure to fresh room air was conducted. Control animals were exposed to the room air chamber. From day 1 to day 4 animals were administered test compound by the oral route. On day 5, 24 hours after the last cigarette smoke (CS) exposure. animals were exsanguinated under anaesthesia, and the trachea was cannulated and the lungs were lavaged with 0.5 ml aliquots of heparinised PBS (1 unit/ml) four times through a tracheal cannula (total volume 2 ml). Bronchioalveolar (BAL) collected was stored at 2-8° C. until assayed for total cell and differential leukocyte count. BAL fluid was centrifuged (500×g for 10 min) and the resulting cell pellet was resuspended in 0.5 ml of heparinised saline. The total number of white blood cells was determined in BAL fluid and blood using a blood cell counter and adjusted to 1×10^6 cell/ml. Differential cell count was calculated manually. Forty microliters of the cell suspension was centrifuged using cytospin 3 to prepare a cell smear. The cell smear was stained with a blood staining solution for differentiation and microscopically observed by identifying each cell according to its morphological characteristics. The number of each cell type among 300 white blood cells in the cell smear were determined and expressed as a percentage, and the number of neutrophils and macrophages in each BAL fluid were calculated.
The procedure for acute cigarette smoke induced cell infiltration in male Balb/c mice described in Example 1 was performed with Compound A1 and roflumilast

The next assay deals with PI3K Gamma (Homo sapiens, UniProt P48736). In words: PI3K Gamma enzyme inhibition. The assay is classed as biochemical.
PI3K Gamma, sequence (P48736 whole entry, species assumed): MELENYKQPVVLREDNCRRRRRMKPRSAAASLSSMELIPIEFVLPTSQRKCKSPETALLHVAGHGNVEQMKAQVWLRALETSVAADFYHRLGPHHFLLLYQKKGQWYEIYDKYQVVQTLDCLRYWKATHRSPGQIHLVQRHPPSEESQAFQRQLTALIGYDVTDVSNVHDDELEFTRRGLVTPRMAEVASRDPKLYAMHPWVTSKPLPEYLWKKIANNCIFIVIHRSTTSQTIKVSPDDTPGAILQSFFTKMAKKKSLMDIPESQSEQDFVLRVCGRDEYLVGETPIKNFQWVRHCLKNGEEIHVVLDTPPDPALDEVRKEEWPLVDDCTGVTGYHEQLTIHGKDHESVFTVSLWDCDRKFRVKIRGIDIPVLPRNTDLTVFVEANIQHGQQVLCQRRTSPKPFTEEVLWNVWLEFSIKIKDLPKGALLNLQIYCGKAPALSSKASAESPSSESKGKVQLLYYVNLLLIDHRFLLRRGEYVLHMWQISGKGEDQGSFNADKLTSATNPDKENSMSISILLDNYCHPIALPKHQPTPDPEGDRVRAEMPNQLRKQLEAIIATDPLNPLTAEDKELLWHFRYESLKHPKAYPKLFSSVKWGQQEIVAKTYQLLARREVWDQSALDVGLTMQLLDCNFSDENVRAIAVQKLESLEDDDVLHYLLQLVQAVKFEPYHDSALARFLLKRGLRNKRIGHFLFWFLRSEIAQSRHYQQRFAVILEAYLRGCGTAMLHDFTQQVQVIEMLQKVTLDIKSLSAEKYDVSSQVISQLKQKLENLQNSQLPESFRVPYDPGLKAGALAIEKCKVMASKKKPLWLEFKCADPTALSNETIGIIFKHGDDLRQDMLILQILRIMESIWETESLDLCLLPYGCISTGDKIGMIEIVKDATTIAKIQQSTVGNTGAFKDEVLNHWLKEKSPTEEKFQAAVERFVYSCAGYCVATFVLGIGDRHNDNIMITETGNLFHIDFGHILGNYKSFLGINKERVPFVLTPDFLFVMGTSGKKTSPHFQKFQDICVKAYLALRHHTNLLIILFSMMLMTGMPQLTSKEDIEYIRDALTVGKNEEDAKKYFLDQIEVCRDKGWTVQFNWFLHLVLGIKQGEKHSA
The subject of assay [2] is TNFα. The assay can be described thus: LPS induced TNFα in MH-S (mouse alveolar macrophage) cells. In kind it is cell-based. As to the method: MH-S represents a mouse alveolar macrophage cell line that secretes copious amounts of TNFα upon induction by LPS. Cells were plated at 150,000 cells per well. 10 nM of Compound A1 (final concentration) was added 15 minutes prior to the addition of roflumilast. LPS (1 μg/ml) was added and then incubated for 4 hours. The supernatant was collected after 20 hours and TNFα was estimated using an ELISA kit.

The target of another assay is PI3K Delta (Homo sapiens, UniProt O00329). The assay can be described thus: PI3K Delta enzyme inhibition. The assay is classed as biochemical.
PI3K Delta, sequence (O00329 whole entry, species assumed): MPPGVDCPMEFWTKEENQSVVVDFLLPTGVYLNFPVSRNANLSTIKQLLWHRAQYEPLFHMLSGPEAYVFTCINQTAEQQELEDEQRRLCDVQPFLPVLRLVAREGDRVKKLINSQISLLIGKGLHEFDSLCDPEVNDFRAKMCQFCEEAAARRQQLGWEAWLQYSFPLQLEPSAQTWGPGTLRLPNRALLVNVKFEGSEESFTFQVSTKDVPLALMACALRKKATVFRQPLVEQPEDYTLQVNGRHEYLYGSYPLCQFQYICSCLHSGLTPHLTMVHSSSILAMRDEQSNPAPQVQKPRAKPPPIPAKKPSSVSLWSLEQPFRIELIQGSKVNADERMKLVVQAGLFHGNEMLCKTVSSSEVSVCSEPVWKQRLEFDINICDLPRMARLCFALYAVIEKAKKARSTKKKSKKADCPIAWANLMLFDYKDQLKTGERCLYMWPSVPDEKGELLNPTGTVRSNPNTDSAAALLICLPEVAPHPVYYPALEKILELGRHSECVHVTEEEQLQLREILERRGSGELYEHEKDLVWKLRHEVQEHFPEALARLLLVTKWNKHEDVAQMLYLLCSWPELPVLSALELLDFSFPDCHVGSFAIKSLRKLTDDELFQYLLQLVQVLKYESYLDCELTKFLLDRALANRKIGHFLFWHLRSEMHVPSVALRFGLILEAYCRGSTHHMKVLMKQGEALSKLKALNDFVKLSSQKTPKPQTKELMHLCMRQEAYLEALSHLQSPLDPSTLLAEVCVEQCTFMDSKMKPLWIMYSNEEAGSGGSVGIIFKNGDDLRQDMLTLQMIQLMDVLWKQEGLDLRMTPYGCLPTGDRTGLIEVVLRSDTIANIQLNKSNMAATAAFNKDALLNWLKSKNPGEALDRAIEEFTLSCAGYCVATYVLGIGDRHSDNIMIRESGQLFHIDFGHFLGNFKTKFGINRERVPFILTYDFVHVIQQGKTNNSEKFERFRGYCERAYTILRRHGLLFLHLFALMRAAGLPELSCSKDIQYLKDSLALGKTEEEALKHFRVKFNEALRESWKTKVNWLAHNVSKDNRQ
PI3K Delta, sequence (P27986 whole entry partner, species assumed): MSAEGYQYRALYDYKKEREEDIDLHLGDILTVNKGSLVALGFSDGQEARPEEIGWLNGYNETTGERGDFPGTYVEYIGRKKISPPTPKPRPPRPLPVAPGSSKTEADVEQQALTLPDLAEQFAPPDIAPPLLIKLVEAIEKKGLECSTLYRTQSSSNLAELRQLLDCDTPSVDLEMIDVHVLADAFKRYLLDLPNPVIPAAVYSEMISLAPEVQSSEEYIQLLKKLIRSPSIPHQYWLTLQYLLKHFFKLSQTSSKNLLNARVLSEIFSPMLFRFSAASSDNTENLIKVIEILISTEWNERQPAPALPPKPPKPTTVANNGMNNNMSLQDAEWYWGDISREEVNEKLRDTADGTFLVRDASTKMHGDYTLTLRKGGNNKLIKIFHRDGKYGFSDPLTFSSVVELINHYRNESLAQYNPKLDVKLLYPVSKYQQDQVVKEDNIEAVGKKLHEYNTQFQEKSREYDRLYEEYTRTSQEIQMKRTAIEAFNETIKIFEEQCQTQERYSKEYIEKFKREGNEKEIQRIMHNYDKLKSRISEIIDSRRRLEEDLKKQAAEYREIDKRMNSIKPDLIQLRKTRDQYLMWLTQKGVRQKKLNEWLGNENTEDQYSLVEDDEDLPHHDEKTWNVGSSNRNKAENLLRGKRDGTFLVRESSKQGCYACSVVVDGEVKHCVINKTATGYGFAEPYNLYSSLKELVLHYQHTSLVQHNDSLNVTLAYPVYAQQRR
Assay [3] deals with IFNγ. The assay can be described thus: Con A+PMA induced IFNγ in PBMC. To be noted: 10 nM alone. In kind it is cell-based. How it is done: PBMC from whole blood were isolated by density gradient using Histopaque and incubated with the desired concentration of inhibitor for 15 minutes. Cytokine release was induced with the addition of Concanavalin A (25 μg/ml)+Phorbol Myristate Acetate (50 ng/ml). Supernatant was collected after 20 hours and IFNγ was estimated using an ELISA kit.

The test system of another assay is neutrophil infiltration. In words: Lipopolysaccharide induced pulmonary neutrophilia in female Wistar rats. The assay is classed as in vivo. As to the method: After the quarantine period, fasted animals were randomized and divided into groups depending on their body weights. Test compound was prepared as a suspension in a vehicle consisting of 0.5% methylcellulose in which Tween 80 was used as a suspending agent. Compounds or vehicle were administered by oral gavage in a volume of 10 mL/kg. Animals were anaesthetized with ketamine and LPS solution was administered intratracheally 30 minutes after compound administration at a dose of 1 mg/kg. Six hours after LPS instillation, animals were exsanguinated under anaesthesia, and the trachea was cannulated, and lungs were lavaged with 5-ml aliquots of heparinised PBS (1 unit/ml) four times through the tracheal cannula (total volume 20 ml). Bronchioalveolar (BAL) fluid was stored at 2-8° C. until assayed for total cell and differential leukocyte count. BAL fluid was centrifuged (500×g for 10 min) and the resulting cell pellet was resuspended in 0.5 ml of heparinised saline. The total numbers of white blood cells were determined in BAL fluid or blood using a cell counter and were adjusted to 1×10^6 cell/ml. Differential cell count was calculated manually. One hundred microliters of the cell suspension was centrifuged using cytospin 3 to prepare a cell smear. The cell smear was stained with a blood staining solution for differentiation and slides were microscopically observed to identify eosinophils according to their morphological characteristics. The number of each cell type among 300 white blood cells in the cell smear was determined and expressed as a percentage of total cells. The number of eosinophil in BALF was calculated.
The procedure for LPS induced pulmonary neutrophilia in female Wistar rats as described in Example 1 was performed with compound A1 and roflumilast.

In assay [4] the test system is IFNγ. The assay can be described thus: Con A+PMA induced IFNγ in human whole blood (HWB). To be noted: 10 nM alone. In kind it is cell-based. How it is done:
Freshly collected HWB was diluted with media and incubated with the desired concentration of inhibitor for 15 minutes. Cytokine release was induced with the addition of Concanavalin A (25 μg/ml)+Phorbol Myristate Acetate (50 ng/ml). The supernatant was collected after 20 hours and IFNγ was estimated using an ELISA kit.

The test system of assay [5] is TNFα. In words: LPS induced TNFα in THP-1 (human monocyte) cells. The assay is classed as cell-based. To be noted: compound alone; THP-1 cells, LPS 1 μg/ml. As to the method:
THP-1 represents a monocytic cell line that has elevated endogenous pAKT levels and secretes copious amounts of TNFα upon induction by LPS. Cells were plated at 150,000 cells per well. 10 nM of Compound A1 (final concentration) was added 15 minutes prior to the addition of roflumilast. LPS (1 μg/ml) was added and then incubated for 4 hours. The supernatant was collected after 20 hours and TNFα was estimated using an ELISA kit.

The test system of assay [6] is TNFα. The assay can be described thus: LPS induced TNFα in human whole blood (HWB). In kind it is cell-based. As to conditions: 100 nM alone. How it is done:
Freshly collected HWB was diluted with media and incubated with the desired concentration of inhibitor for 15 min. LPS (1 μg/ml) was added and then incubated for 24 hours. The supernatant was collected and TNFα estimated using an eBioscience TNFα ELISA kit.
Freshly collected HWB was diluted with media and incubated with the desired concentration of inhibitor for 15 minutes. LPS (1 μg/ml) was added and then incubated for 24 hours. The supernatant was collected and TNFα estimated using an eBioscience TNFα ELISA kit.

Structures are written as SMILES. Read-outs that look alike come from different tables or passages of the source.

For `CC(C)Oc1ccc(-c2nn(C(C)c3oc4cccc(F)c4c(=O)c3-c3cccc(F)c3)c3ncnc(N)c23)cc1F` (single isomer, unassigned; (+)) [Compound A1, (+)-2-(1-(4-amino-3-(3-fluoro-4-isopropoxyphenyl)-1H-pyrazolo[3,4-d]pyrimidin-1-yl)ethyl)-5-fluoro-3-(3-fluorophenyl)-4H-chromen-4-one], the “percent inhibition of neutrophil infiltration” value is 14.76% in assay [1] (0.1 mg/kg oral, mouse); 51.31% in [1] (0.3 mg/kg oral, mouse); 112.83% in assay [1] (1 mg/kg oral, mouse); 17.83% with neutrophil infiltration (0.1 mg/kg oral, rat BAL fluid 6 h after LPS); 51.76% in the assay on neutrophil infiltration (1 mg/kg oral, dose-response study, rat); 70.21% with neutrophil infiltration (10 mg/kg oral, rat). Further, the “percent inhibition of macrophage infiltration” value is given as 20.60% in assay [1] (0.1 mg/kg oral, mouse BAL); 75.19% in assay [1] (0.3 mg/kg oral, dose-response study, mouse); 93.11% in assay [1] (1 mg/kg oral, mouse). In addition, the ED50 in [1] (Macrophage, mouse, read-out: 50% inhibition (ED50) dose, macrophage infiltration) was 0.2 mg/kg; in assay [1] (Neutrophil, mouse, read-out: dose of 50% inhibition (ED50) of neutrophil infiltration), 0.26 mg/kg; in the assay with neutrophil infiltration (Neutrophil, oral, rat LPS pulmonary neutrophilia, read-out: 50% inhibition (ED50) dose, neutrophil infiltration), 1.3 mg/kg. For the same molecule, the “inhibition of neutrophil infiltration” value in assay [1] (combination study, alone at 0.25 mg/kg, mouse) turned out to be 36.69%; in the assay with neutrophil infiltration (combination study, alone at 1.3 mg/kg, rat), 43.02%. For the same molecule, in assay [1] (combination study, alone at 0.3 mg/kg, mouse), the “inhibition of macrophage infiltration” value worked out at 31.33%. The half-inhibitory concentration (IC50) at PI3K Gamma and against PI3K Delta was below 40 nM throughout. Further, the “decrease in TNFα secretion” value in the assay with TNFα [2] (15 nM alone) is listed as around 10%. Further, the “inhibition of TNFα” value is on record as “dose-dependently inhibited TNFα” in the assay on TNFα [2] (compound alone, LPS 1 μg/ml) and “dose-dependently inhibited TNFα” in the assay with TNFα [5]. The “effect on IFNγ secretion” value in the assay on IFNγ [3] and in the assay on IFNγ [4] was “did not affect IFNγ secretion” throughout. The “effect on TNFα secretion” value with TNFα [6] is given as “did not affect TNFα secretion”.

For orientation: IC50 means the concentration that inhibits the measured activity by half. Higher therefore signals a need for much substance.

The record behind these values is patent US10413532B2, “Pharmaceutical compositions containing a PDE4 inhibitor and a PI3 delta or dual PI3 delta-gamma kinase inhibitor” (Rhizen Pharmaceuticals SA, priority 2012, dated 2019).
